Data published in PMC9284121, “Florfenicol-Polyarginine Conjugates Exhibit Promising Antibacterial Activity Against Resistant Strains” (Frontiers in Chemistry, 2022).
Where two headings read alike, the source gives them in different places.

Legend:
[1] = tested on: E. coli clinical strain 2018XJ105; assay: microbe, parasite or virus in culture; assay type: cell-based, Escherichia coli
Method: (§1) All the florfenicol-polyarginine conjugates were tested against Gram-positive and Gram-negative bacteria, including MRSA (ATCC 43300), S. aureus (ATCC 25923), E. coli (ATCC 25922), clinical strains of E. coli (2019XJ06, 2019XJ25, 2018XJ108, 2018XJ105, 2018XJ30) and clinical strains of florfenicol resistant E. coli (2017XJ30, 2019XJ20).
(§2) Gram-negative E. coli (ATCC 25922), clinical strains of E. coli (2019XJ06, 2019XJ25, 2018XJ108, 2018XJ105, 2018XJ30) and clinical strains of florfenicol resistant E. coli (2017XJ30, 2019XJ20) and Gram-positive MRSA (ATCC 43300) and S. aureus (ATCC 25923) were maintained in 50% glycerol at −80°C up to the time of use. The bacterial strains were cultured in Muller-Hinton broth (Guangdong Huan Kai Microbial Sci. &Tech. Co., Ltd. in China) media. Mueller-Hinton agar (Guangdong Huan Kai Microbial Sci. & Tech. Co., Ltd. in China) was used as growth medium in solid media.
(§3) CLSI guidelines were followed for determining MICs of all florfenicol-polyarginine conjugates by the broth microdilution method. The required bacterial (E. coli, S. aureus and MRSA) single colony was inoculated into Muller-Hinton broth (MHB) and cultured for 4–6 h. And then, the bacteria were adjusted to 10^6 CFU/ml in cultures. All compounds were prepared into a stock solution at a concentration of 0.1 mol/L with DMSO. The stock solutions were then diluted to required concentration (100, 50, 25, 12.5, 6.25, 3.125, 1.56, 0.78, 0.39 μmol/L) with MHB media. Subsequently, a 96 well plate was filled with these dilutions and 10^6 CFU/ml bacterial suspension. The diluted compounds of different concentrations (100 µl) were first added to 96 well plate, and then 100 µl bacterial dilutions (10^6 CFU/ml) was added. The negative and positive controls were 200 µl of MHB media and 100 µl of bacterial suspension combined with 100 µl of MHB media, respectively. The experiment of each compound was repeated three times, and each experiment was at least twice repeated. The 96 well plates were incubated at 37°C for 16–24 h. MIC indicated antibacterial activity. Florfenicol was used as a control drug.

[2] = tested on: E. coli clinical strain 2018XJ108; assay: microbe, parasite or virus in culture; assay type: cell-based, Escherichia coli
Method: as §1, §2, §3

[3] = tested on: E. coli clinical strain 2018XJ30; assay: microbe, parasite or virus in culture; assay type: cell-based, Escherichia coli
Method: as §1, §2, §3

[4] = tested on: E. coli clinical strain 2019XJ06; assay: microbe, parasite or virus in culture; assay type: cell-based, Escherichia coli
Method: as §1, §2, §3

[5] = tested on: E. coli clinical strain 2019XJ25; assay: microbe, parasite or virus in culture; assay type: cell-based, Escherichia coli
Method: as §1, §2, §3

E.coli (ATCC 25922) = assay: microbe, parasite or virus in culture; assay type: cell-based, Escherichia coli
Method: as §1, §2, §3

[6] = tested on: florfenicol resistant E. coli clinical strain 2017XJ30; assay: microbe, parasite or virus in culture; assay type: cell-based, Escherichia coli
Method: as §1, §2, §3

[7] = tested on: florfenicol resistant E. coli clinical strain 2019XJ20; assay: microbe, parasite or virus in culture; assay type: cell-based, Escherichia coli
Method: as §1, §2, §3

S. aureus (ATCC 292130) = assay: microbe, parasite or virus in culture; assay type: cell-based, Staphylococcus aureus
MRSA (ATCC 43300) = assay: microbe, parasite or virus in culture; assay type: cell-based, methicillin-resistant S. aureus
Method: as §1, §2, §3

[8] = tested on: 10 strains tested (E. coli, S. aureus, MRSA, clinical E. coli strains); assay: microbe, parasite or virus in culture; assay type: cell-based
Method: as §1, §2, §3

E. coli = assay: Propensity of bacterial resistance development (serial passage at 0.5 MIC); assay type: cell-based, Escherichia coli
Method: It is crucial to evaluate the potential emergence of resistance from these compounds. […] The process was repeated for 16 passages. […] However, E. coli became resistant to FFC after only a few days. Therefore, these conjugates can be to combat drug-resistant bacteria.
Compound E6 was used to evaluate the tendency of developing bacterial resistance towards the florfenicol-polyarginine conjugates. The control antibiotic florfenicol was chosen for E. coli. MIC of E6 and florfenicol for 24 h were determined against E. coli., and then 0.5 MIC of E6 and florfenicol was challenged repeatedly against E. coli. After the initial MIC experiment, serial passage was investigated by transferring the growing bacterial suspension at sub-MIC of the compounds (MIC/2) and MIC in every passage was determined again. The process was repeated for 16 passages. The MICs for E6 and florfenicol corresponding to days were draw into figure to determine the propensity of bacterial resistance development.

N=C(N)NCCC[C@H](NC(=O)[C@H](CCCNC(=N)N)NC(=O)[C@H](CCCNC(=N)N)NC(=O)[C@H](CCCNC(=N)N)NC(=O)[C@H](CCCNC(=N)N)NC(=O)[C@H](CCCNC(=N)N)NC(=O)[C@H](CCCNC(=N)N)NC(=O)[C@@H](N)CCCNC(=N)N)C(N)=O [Compound D6]
25 to 100 µM: MIC [8]
25 µM: MIC (S. aureus (ATCC 292130); ATCC 292130) | MIC (MRSA (ATCC 43300); ATCC 43300)
50 µM: MIC ([1]; clinical strain 2018XJ105) | MIC ([2]; clinical strain 2018XJ108) | MIC ([3]; clinical strain 2018XJ30) | MIC ([4]; clinical strain 2019XJ06) | MIC ([5]; clinical strain 2019XJ25) | MIC (E.coli (ATCC 25922); ATCC 25922) | MIC ([6]; florfenicol resistant clinical strain 2017XJ30) | MIC ([7]; florfenicol resistant clinical strain 2019XJ20)

CS(=O)(=O)c1ccc([C@@H](O)[C@@H](CF)NC(=O)C(Cl)Cl)cc1 [Florfenicol]
6.25 µM: MIC ([1]; Escherichia coli, clinical E. coli 2018XJ105, MHB, read-out: MIC) | MIC ([2]; Escherichia coli, clinical E. coli 2018XJ108, MHB, read-out: MIC) | MIC ([3]; Escherichia coli, clinical E. coli 2018XJ30, MHB, read-out: MIC) | MIC ([4]; Escherichia coli, clinical E. coli 2019XJ06, MHB, read-out: MIC) | MIC ([5]; Escherichia coli, clinical E. coli 2019XJ25, MHB, read-out: MIC) | MIC (E.coli (ATCC 25922); Escherichia coli, ATCC25922, E.coli (ATCC 25922), MHB, read-out: MIC) | MIC (S. aureus (ATCC 292130); Staphylococcus aureus, ATCC292130, S. aureus (ATCC 292130), MHB, read-out: MIC) | MIC (MRSA (ATCC 43300); Staphylococcus aureus, MRSA (ATCC 43300), MHB, read-out: MIC)
> 100 µM: MIC ([6]; Escherichia coli, florfenicol resistant E. coli 2017XJ30, MHB, read-out: MIC) | MIC ([7]; Escherichia coli, florfenicol resistant E. coli 2019XJ20, MHB, read-out: MIC)
2 fold: change of MIC after 16 passages (E. coli)
